From patent US11878973B2, “Bicyclic compounds and their uses” (NOVARTIS AG, priority 2021, dated 2024)
pIC50: −log10 of the molar value. Read-outs that look alike come from different tables or passages of the source.

How the values were obtained:
WRN helicase = WRN helicase (Homo sapiens (Human), UniProt Q14191); test: In vitro enzymatic activity assay on WRN helicase (DNA dependent ATPase assay, ADP-Glo); type: biochemical
Excerpt: An ATPase assay was set up to measure the DNA dependent ATP hydrolysis activity of WRN helicase. This assay was used also to assess the inhibition properties of compounds of the invention on DNA dependent WRN ATPase activity.
The core helicase motif of the WRN protein (aa N517-P1238) was produced for this assay (protein production as described above). […] The ADP-Glo assay kit (Promega, Madison, WI) allowing the quantification of ADP produced in ATP hydrolysis reactions was used for setting up this assay.
Time course experiments were first performed in order to determine the best enzymatic assay conditions (including buffer conditions, reaction time and concentrations of protein, ATP and DNA substrates). A typical reaction consists of 10 nM WRN protein, 0.2 nM FLAP26, and 300 micromolar ATP in the following assay buffer: 30 mM Tris pH7.5, 2 mM MgCl2, 0.02% BSA, 50 mM NaCl, 0.1% pluronic F127 prepared in DNAse free water. To evaluate the inhibition properties of compounds of the invention, serial dilutions were prepared in DMSO (10 half log dilutions from a 10 mM DMSO solution). […] The reaction was started by addition of 2.5 microliters of FLAP26 at 0.4 nM and incubated for 30 minutes at room temperature. The reaction was stopped with the addition of 5 microliters of the first ADP-Glo reagent and incubated for one hour to remove the excess amount of ATP. Afterwards, 10 microliters of ATP detection reagent was added and incubated for an additional hour before reading. Luminescence output was recorded using Tecan 1000 reader, with 5 minutes delay before reading. Each concentration of compound was tested in duplicates in the assay plate.
Following normalization of activity values for the wells to % inhibition (% inhibition=[(high control-sample)/(high control-low control)]×100), IC50 fitting was carried out from the duplicate determinations present on each plate according to [4]. Data analysis can also be carried out using commercially available software designed to derive IC50 values using 4-parameter fits (e.g. GraphPad Prism, XL fit). The reported IC50 values are the geometrical means of at least 2 independent replicates.

SW48 cells = test: Proliferation assay SW48 (CellTiterGlo, 96 hours)
Description: (§1) The WRN-knockdown insensitive colon carcinoma cell line DLD-1 (RRID: CVCL_0248) was obtained from the Korean Cell Line Bank (KCLB), and used to generate a derivative in which the endogenous WRN gene copies were knocked out by CRISPR-mediated editing using standard CRISPR methods. The resulting cell line, DLD1-WRN—KO, was used to assess potential off-target compound effects.
(§2) All cells were maintained at 37° C. in a humidified 5% CO2 incubator.
(§3) For data analysis, the assay background signal that was determined in wells containing medium, but no cells, was subtracted from all other data points prior to further calculations. The extent of growth inhibition and potential cell kill was assessed by comparing the ATP levels (measured using CellTiterGlo, Promega) in compound-treated cells with those present at the time of compound addition. […] 100%, 0% and −100% signify absence of growth inhibition, growth stasis, and complete cell kill, respectively. Compound concentrations leading to half-maximal growth inhibition (G150) and residual cell viability at the highest tested compound concentration (Data (cmax), expressed in percent) were routinely calculated. Data analysis can also be carried out using commercially available software designed to derive IC50 values using 4-parameter fits (e.g. GraphPad Prism, XL fit). The reported GI50 values are the geometrical means of at least 2 independent replicates.

DLD1-WRN-KO cells = test: Proliferation assay DLD1-WRN-KO (CellTiterGlo, 96 hours; off-target effects)
Description: as §1, §2, §3

[1] = geometric means of at least 2 determinations, read-out: WRN ATPase Activity (IC50)
[2] = read-out: Proliferation Assay SW48 (GI50), SW48 cell line, geometric means of at least 2 determinations
[3] = read-out: Proliferation Assay DLD1-WRN-KO (GI50), DLD1-WRN-KO cell line, geometric means of at least 2 determinations
[4] = Homo sapiens, SW48, read-out: Proliferation Assay SW48 (GI50)
[5] = Homo sapiens, read-out: Proliferation Assay DLD1-WRN-KO (GI50)

WRN helicase, sequence (Q14191 517-1238): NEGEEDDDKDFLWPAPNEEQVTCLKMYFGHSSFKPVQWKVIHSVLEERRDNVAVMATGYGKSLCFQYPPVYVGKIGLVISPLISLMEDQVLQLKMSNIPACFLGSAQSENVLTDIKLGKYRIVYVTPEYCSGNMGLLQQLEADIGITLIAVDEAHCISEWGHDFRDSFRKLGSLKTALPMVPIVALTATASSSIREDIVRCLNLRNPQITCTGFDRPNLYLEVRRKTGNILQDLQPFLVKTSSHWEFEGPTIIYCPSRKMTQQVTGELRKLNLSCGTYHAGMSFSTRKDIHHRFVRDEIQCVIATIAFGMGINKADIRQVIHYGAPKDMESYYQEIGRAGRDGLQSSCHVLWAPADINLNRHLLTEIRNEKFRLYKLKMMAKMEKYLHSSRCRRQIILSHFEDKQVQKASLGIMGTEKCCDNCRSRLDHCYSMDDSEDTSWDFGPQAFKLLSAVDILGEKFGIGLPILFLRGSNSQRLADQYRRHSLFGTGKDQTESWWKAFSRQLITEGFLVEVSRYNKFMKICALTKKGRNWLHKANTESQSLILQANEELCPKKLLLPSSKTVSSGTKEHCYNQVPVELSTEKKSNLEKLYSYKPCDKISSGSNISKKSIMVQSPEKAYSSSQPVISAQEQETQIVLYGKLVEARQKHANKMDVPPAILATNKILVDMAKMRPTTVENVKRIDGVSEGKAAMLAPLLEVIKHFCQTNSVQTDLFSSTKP

SMILES	pIC50 (WRN helicase; [1])	GI50 (SW48 cells; [2]) [nM]	GI50 (DLD1-WRN-KO cells; [3]) [nM]	pIC50 (WRN helicase; read-out: WRN ATPase inhibition (IC50))	GI50 (SW48 cells; [4]) [nM]	GI50 (SW48 cells; Homo sapiens, SW48, read-out: proliferation GI50 in SW48, as stated in text) [nM]	GI50 (DLD1-WRN-KO cells; Homo sapiens, DLD-1, read-out: proliferation GI50 in DLD1 WRN-KO) [nM]	GI50 (DLD1-WRN-KO cells; [5]) [nM]
CCc1c(N2CCN(C(=O)c3ncnc(C)c3O)[C@@H](C)[C@H]2C)c(=O)n2nc(C3=CCOCC3)nc2n1CC(=O)Nc1ccc(C(F)(F)F)cc1Cl (single isomer, unassigned) [Example 121]	6.07	1740	> 10000					
CCc1c(N2CCN(C(=O)c3ncnc(C)c3O)[C@H](C)[C@@H]2C)c(=O)n2nc(C3=CCOCC3)nc2n1CC(=O)Nc1ccc(C(F)(F)F)cc1Cl (single isomer, unassigned) [Example 122]	6.82	100	> 10000					
CCc1c(N2CCN(C(=O)c3ncnc(C)c3O)[C@@H]3CC[C@@H]32)c(=O)n2nc(C3=CCOCC3)nc2n1CC(=O)Nc1ccc(C(F)(F)F)cc1Cl (single isomer, unassigned) [Example 131]	6.96	30	> 10000					
CCc1c(N2CCN(C(=O)c3ncnc(C)c3O)[C@@H]3CC[C@@H]32)c(=O)n2nc(C3=CCOCC3)nc2n1CC(=O)Nc1ccc(C(F)(F)F)cc1Cl (single isomer, unassigned) [Example 132]	6.05	490	> 10000					
CCc1c(N2CCN(C(=O)c3nccc(Cl)c3O)CC2)c(=O)n2nc(N3CCOCC3)nc2n1CC(=O)Nc1ccc(C(F)(F)F)cc1Cl [Example 1, 2-(6-(4-(4-chloro-3-hydroxypicolinoyl)piperazin-1-yl)-5-ethyl-2-morpholino-7-oxo-[1,2,4]triazolo[1,5-a]pyrimidin-4(7H)-yl)-N-(2-chloro-4-(trifluoromethyl)phenyl)acetamide]	7.30			7.30	50	50	> 10000	> 10000
CCc1c(N2CCN(C(=O)c3ncccc3O)CC2)c(=O)n2nc(N3CCOCC3)nc2n1CC(=O)Nc1ccc(C(F)(F)F)cc1Cl [Example 2, N-(2-chloro-4-(trifluoromethyl)phenyl)-2-(5-ethyl-6-(4-(3-hydroxypicolinoyl)piperazin-1-yl)-2-morpholino-7-oxo-[1,2,4]triazolo[1,5-a]pyrimidin-4(7H)-yl)acetamide]	7.10				190			> 10000
CCc1c(N2CCN(C(=O)c3nccc(F)c3O)CC2)c(=O)n2nc(N3CCOCC3)nc2n1CC(=O)Nc1ccc(C(F)(F)F)cc1Cl [Example 3, N-(2-chloro-4-(trifluoromethyl)phenyl)-2-(5-ethyl-6-(4-(4-fluoro-3-hydroxypicolinoyl)piperazin-1-yl)-2-morpholino-7-oxo-[1,2,4]triazolo[1,5-a]pyrimidin-4(7H)-yl)acetamide]	7.15				90			> 10000

Continued, values first:

pIC50 (WRN helicase; [1])	GI50 (SW48 cells; [2]) [nM]	GI50 (DLD1-WRN-KO cells; [3]) [nM]	pIC50 (WRN helicase; read-out: WRN ATPase inhibition (IC50))	GI50 (SW48 cells; [4]) [nM]	GI50 (SW48 cells; Homo sapiens, SW48, read-out: proliferation GI50 in SW48, as stated in text) [nM]	GI50 (DLD1-WRN-KO cells; Homo sapiens, DLD-1, read-out: proliferation GI50 in DLD1 WRN-KO) [nM]	GI50 (DLD1-WRN-KO cells; [5]) [nM]	SMILES
6.96	40	> 10000						CCc1c(N2CCN(C(=O)c3nccc(Cl)c3O)CC2)c(=O)n2nc(C3=CC[C@H](OC)CC3)nc2n1CC(=O)Nc1ccc(C(F)(F)F)nc1Cl (single isomer, unassigned) [Example 24a]
7.00	50	> 10000						CCc1c(N2CCN(C(=O)c3nccc(Cl)c3O)CC2)c(=O)n2nc(C3=CC[C@H](OC)CC3)nc2n1CC(=O)Nc1ccc(C(F)(F)F)nc1Cl (single isomer, unassigned) [Example 24b]
6.80	50	> 10000						CCc1c(N2CCN(C(=O)c3ncccc3O)CC2)c(=O)n2nc(C3=CC[C@H](OC)CC3)nc2n1CC(=O)Nc1ccc(C(F)(F)F)nc1Cl (single isomer, unassigned) [Example 25a, ((R)—N-(2-chloro-6-(trifluoromethyl)pyridin-3-yl)-2-(5-ethyl-6-(4-(3-hydroxypicolinoyl)piperazin-1-yl)-2-(4-methoxycyclohex-1-en-1-yl)-7-oxo-[1,2,4]triazolo[1,5-a]pyrimidin-4(7H)-yl)acetamide) or ((S)—N-(2-chloro-6-(trifluoromethyl)pyridin-3-yl)-2-(5-ethyl-6-(4-(3-hydroxypicolinoyl)piperazin-1-yl)-2-(4-methoxycyclohex-1-en-1-yl)-7-oxo-[1,2,4]triazolo[1,5-a]pyrimidin-4(7H)-yl)acetamide)]
7.00	50	> 10000						CCc1c(N2CCN(C(=O)c3ncccc3O)CC2)c(=O)n2nc(C3=CC[C@H](OC)CC3)nc2n1CC(=O)Nc1ccc(C(F)(F)F)nc1Cl (single isomer, unassigned) [Example 25b, ((R)—N-(2-chloro-6-(trifluoromethyl)pyridin-3-yl)-2-(5-ethyl-6-(4-(3-hydroxypicolinoyl)piperazin-1-yl)-2-(4-methoxycyclohex-1-en-1-yl)-7-oxo-[1,2,4]triazolo[1,5-a]pyrimidin-4(7H)-yl)acetamide) or ((S)—N-(2-chloro-6-(trifluoromethyl)pyridin-3-yl)-2-(5-ethyl-6-(4-(3-hydroxypicolinoyl)piperazin-1-yl)-2-(4-methoxycyclohex-1-en-1-yl)-7-oxo-[1,2,4]triazolo[1,5-a]pyrimidin-4(7H)-yl)acetamide)]
7.15	70	> 10000						CCc1c(N2CCN(C(=O)c3ncccc3O)CC2)c(=O)n2nc(C3=CC[C@H](OC)CC3)nc2n1CC(=O)Nc1ccc(C(F)(F)F)cc1C (single isomer, unassigned) [Example 80a, ((R)-2-(5-ethyl-6-(4-(3-hydroxypicolinoyl)piperazin-1-yl)-2-(4-methoxycyclohex-1-en-1-yl)-7-oxo-[1,2,4]triazolo[1,5-a]pyrimidin-4(7H)-yl)-N-(2-methyl-4-(trifluoromethyl)phenyl)acetamide) or ((S)-2-(5-ethyl-6-(4-(3-hydroxypicolinoyl)piperazin-1-yl)-2-(4-methoxycyclohex-1-en-1-yl)-7-oxo-[1,2,4]triazolo[1,5-a]pyrimidin-4(7H)-yl)-N-(2-methyl-4-(trifluoromethyl)phenyl)acetamide)]
7.10	60	> 10000						CCc1c(N2CCN(C(=O)c3ncccc3O)CC2)c(=O)n2nc(C3=CC[C@H](OC)CC3)nc2n1CC(=O)Nc1ccc(C(F)(F)F)cc1C (single isomer, unassigned) [Example 80b, ((R)-2-(5-ethyl-6-(4-(3-hydroxypicolinoyl)piperazin-1-yl)-2-(4-methoxycyclohex-1-en-1-yl)-7-oxo-[1,2,4]triazolo[1,5-a]pyrimidin-4(7H)-yl)-N-(2-methyl-4-(trifluoromethyl)phenyl)acetamide) or ((S)-2-(5-ethyl-6-(4-(3-hydroxypicolinoyl)piperazin-1-yl)-2-(4-methoxycyclohex-1-en-1-yl)-7-oxo-[1,2,4]triazolo[1,5-a]pyrimidin-4(7H)-yl)-N-(2-methyl-4-(trifluoromethyl)phenyl)acetamide)]
7.40	70	> 10000						CCc1c(N2CCN(C(=O)c3ncccc3O)CC2)c(=O)n2nc(C3=CC[C@H](OC)CC3)nc2n1CC(=O)Nc1ccc(C(F)(F)F)cc1 (single isomer, unassigned) [Example 81a, ((R)-2-(5-ethyl-6-(4-(3-hydroxypicolinoyl)piperazin-1-yl)-2-(4-methoxycyclohex-1-en-1-yl)-7-oxo-[1,2,4]triazolo[1,5-a]pyrimidin-4(7H)-yl)-N-(4-(trifluoromethyl)phenyl)acetamide or ((S)-2-(5-ethyl-6-(4-(3-hydroxypicolinoyl)piperazin-1-yl)-2-(4-methoxycyclohex-1-en-1-yl)-7-oxo-[1,2,4]triazolo[1,5-a]pyrimidin-4(7H)-yl)-N-(4-(trifluoromethyl)phenyl)acetamide]
7.40	60	> 10000						CCc1c(N2CCN(C(=O)c3ncccc3O)CC2)c(=O)n2nc(C3=CC[C@H](OC)CC3)nc2n1CC(=O)Nc1ccc(C(F)(F)F)cc1 (single isomer, unassigned) [Example 81b, ((R)-2-(5-ethyl-6-(4-(3-hydroxypicolinoyl)piperazin-1-yl)-2-(4-methoxycyclohex-1-en-1-yl)-7-oxo-[1,2,4]triazolo[1,5-a]pyrimidin-4(7H)-yl)-N-(4-(trifluoromethyl)phenyl)acetamide or ((S)-2-(5-ethyl-6-(4-(3-hydroxypicolinoyl)piperazin-1-yl)-2-(4-methoxycyclohex-1-en-1-yl)-7-oxo-[1,2,4]triazolo[1,5-a]pyrimidin-4(7H)-yl)-N-(4-(trifluoromethyl)phenyl)acetamide]
